Data taken from patent US11771694B2, “Arylamide compounds for treatment and prevention of viral infections” (priority 2020, dated 2023).
In brackets after ≈: the same amount, converted by molar mass. Several values for one entry are separate records, joined by “and”; a condition that tells them apart may be missing. Equal values may be shown once.

What was measured:
[1] = system: human liver cell line (HepG2)
Entero. faecium (VRE) = assay: Broth microdilution MIC; assay type: cell-based; settings: Enterococcus faecium; Entero. faecium (VRE); 2-3 isolates/organism; read-out: MIC
Acinetobacter spp. = assay: Broth microdilution MIC; assay type: cell-based; settings: 2-3 isolates/organism
Escherichia coli = assay: Broth microdilution MIC; assay type: cell-based; settings: 2-3 isolates/organism, read-out: MIC
SARS-CoV-2 [2] = assay: microbe, parasite or virus in culture; assay type: cell-based
[3] = system: LPS-induced MCP-1 release; assay: LPS-induced MCP-1 release, NR8383 cells, ELISA; assay type: cell-based; settings: Rattus norvegicus, 8-hour exposure, read-out: IC50, inhibition of LPS-induced MCP-1 release
[4] = system: Venezuelan equine encephalitis virus (VEEV) TC83; assay type: cell-based; settings: U87MG cells; 10 μM; virus treated only; 24 hpi
Strept. viridians = assay: Broth microdilution MIC; assay type: cell-based; settings: Strept. viridians; 2-3 isolates/organism; read-out: MIC
HCoV-NL63 = assay: Virus yield reduction assay, HCoV-NL63 on Vero cells; assay type: cell-based; settings: Human coronavirus NL63, 48 hours post-infection
Protocol: (§1) For these assays, brilacidin was included during viruses infection and post infection stages. The EC50 values were calculated from best-fit dose response curves with variable slope in Prism 8.

SARS-CoV-2 [5] = assay: SARS-CoV-2 testing in Caco-2 cells and primary lung fibroblasts; assay type: cell-based; settings: Caco-2 cells and primary lung fibroblasts from human donors; data not shown
[6] = system: human erythrocytes (RBCs)
S. aureus = assay: microbe, parasite or virus in culture; assay type: cell-based; settings: Staphylococcus aureus; value marked * = MIC90
Citrobacter fruendi = assay: Broth microdilution MIC; assay type: cell-based; settings: Citrobacter fruendi; 2-3 isolates/organism; read-out: MIC
human PDE4B2 = human PDE4B2 (Homo sapiens, UniProt Q07343); assay: PDE-Glo phosphodiesterase assay, PDE4B2; settings: IC50, inhibition of human PDE4B2, 1 μM cAMP substrate
Sequence of human PDE4B2 (Q07343 1-564 isoform Q07343-2): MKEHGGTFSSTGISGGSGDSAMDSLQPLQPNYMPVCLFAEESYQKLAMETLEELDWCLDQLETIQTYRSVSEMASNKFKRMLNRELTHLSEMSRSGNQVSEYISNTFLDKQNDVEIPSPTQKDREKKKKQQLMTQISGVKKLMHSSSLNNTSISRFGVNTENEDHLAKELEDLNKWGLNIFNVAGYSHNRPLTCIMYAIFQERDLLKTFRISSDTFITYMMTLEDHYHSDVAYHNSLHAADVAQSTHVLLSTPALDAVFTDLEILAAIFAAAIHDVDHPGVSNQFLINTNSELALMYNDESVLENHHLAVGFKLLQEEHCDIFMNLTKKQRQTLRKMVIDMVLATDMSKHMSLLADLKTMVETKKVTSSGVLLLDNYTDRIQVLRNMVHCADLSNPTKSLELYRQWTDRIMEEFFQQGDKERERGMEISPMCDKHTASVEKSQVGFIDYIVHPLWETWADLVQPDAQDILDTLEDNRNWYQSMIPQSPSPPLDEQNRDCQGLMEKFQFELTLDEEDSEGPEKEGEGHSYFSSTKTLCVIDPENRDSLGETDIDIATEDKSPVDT

[7] = system: embryonic mouse cell line (NIH/3T3)
LPS-induced IL-6 release = assay: LPS-induced IL-6 release, NR8383 cells, ELISA; assay type: cell-based; settings: Rattus norvegicus, 8-hour exposure, read-out: IC50, inhibition of LPS-induced IL-6 release
[8] = system: luciferase-expressing pseudotyped virus (rVSV) containing the SARS-CoV-2 spike protein; assay type: cell-based
Strept. pneumoniae = assay: Broth microdilution MIC; assay type: cell-based; settings: Streptococcus pneumoniae; Strept. pneumoniae; 2-3 isolates/organism; read-out: MIC
HCoV-229E = assay: Virus yield reduction assay, HCoV-229E on Huh-7 cells; assay type: cell-based; settings: Human coronavirus 229E, 48 hours post-infection
Protocol: as §1

[9] = system: SARS-CoV-2 (Washington strain 2019-nCoV/USA-WA1/2020); settings: Vero; direct assay; 10 μM; 24 hpi
Providencia stuartii = assay: Broth microdilution MIC; assay type: cell-based; settings: 2-3 isolates/organism, read-out: MIC
human PDE3A = human PDE3A (Homo sapiens, UniProt Q14432); assay: PDE-Glo phosphodiesterase assay, PDE3A; assay type: biochemical; settings: 1 μM cAMP substrate; read-out: IC50, inhibition of human PDE3A
Sequence of human PDE3A (Q14432 whole entry): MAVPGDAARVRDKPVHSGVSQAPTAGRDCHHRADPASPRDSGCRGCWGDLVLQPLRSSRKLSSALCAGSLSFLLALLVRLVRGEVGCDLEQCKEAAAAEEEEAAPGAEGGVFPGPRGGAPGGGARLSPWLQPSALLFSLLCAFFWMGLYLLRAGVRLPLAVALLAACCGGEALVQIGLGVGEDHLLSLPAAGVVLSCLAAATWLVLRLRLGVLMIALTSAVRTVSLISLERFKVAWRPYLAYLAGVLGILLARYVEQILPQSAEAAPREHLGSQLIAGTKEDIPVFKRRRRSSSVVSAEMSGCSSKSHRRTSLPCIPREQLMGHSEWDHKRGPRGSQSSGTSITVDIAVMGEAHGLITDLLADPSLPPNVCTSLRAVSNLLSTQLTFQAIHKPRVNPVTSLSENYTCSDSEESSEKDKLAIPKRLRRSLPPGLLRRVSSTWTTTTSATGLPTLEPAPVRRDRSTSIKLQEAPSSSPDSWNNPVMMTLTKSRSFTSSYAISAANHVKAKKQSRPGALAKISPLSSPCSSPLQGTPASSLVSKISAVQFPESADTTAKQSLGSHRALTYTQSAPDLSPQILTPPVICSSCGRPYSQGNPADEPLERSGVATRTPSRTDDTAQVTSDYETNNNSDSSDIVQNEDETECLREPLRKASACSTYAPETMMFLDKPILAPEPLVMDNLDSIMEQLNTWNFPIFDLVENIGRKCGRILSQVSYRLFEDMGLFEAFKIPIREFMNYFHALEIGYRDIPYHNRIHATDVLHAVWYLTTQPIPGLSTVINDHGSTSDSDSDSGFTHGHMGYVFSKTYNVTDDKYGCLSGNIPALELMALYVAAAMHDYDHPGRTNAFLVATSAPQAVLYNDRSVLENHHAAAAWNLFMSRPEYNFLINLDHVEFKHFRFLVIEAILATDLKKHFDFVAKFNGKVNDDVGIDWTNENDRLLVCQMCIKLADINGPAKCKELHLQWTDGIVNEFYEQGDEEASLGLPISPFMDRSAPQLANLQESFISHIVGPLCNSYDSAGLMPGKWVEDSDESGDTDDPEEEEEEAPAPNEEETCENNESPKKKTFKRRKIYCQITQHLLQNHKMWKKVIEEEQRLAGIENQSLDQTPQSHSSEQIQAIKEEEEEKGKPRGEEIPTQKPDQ

[10] = system: LPS-induced IL-1β release; assay: LPS-induced IL-1β release, NR8383 cells, ELISA; assay type: cell-based; settings: Rattus norvegicus, 8-hour exposure, read-out: IC50, inhibition of LPS-induced IL-1β release
Klebsiella oxtoca = assay: Broth microdilution MIC; assay type: cell-based; settings: Klebsiella oxtoca; 2-3 isolates/organism; read-out: MIC
Strept. agalactiae = assay: Broth microdilution MIC; assay type: cell-based; settings: Streptococcus agalactiae; Strept. agalactiae; 2-3 isolates/organism; read-out: MIC
[11] = Severe acute respiratory syndrome coronavirus 2, Calu-3

N=C(N)NCCCCC(=O)Nc1cc(C(F)(F)F)cc(NC(=O)c2cc(C(=O)Nc3cc(C(F)(F)F)cc(NC(=O)CCCCNC(=N)N)c3OC3CCNC3)ncn2)c1OC1CCNC1 (centres unmarked) [brilacidin]
Selectivity (EC50/MIC) HepG2 [1]: 1,031
MIC (Entero. faecium (VRE)): 1 µg/mL (≈ 1.07 µM)
MIC (Acinetobacter spp.): 4 µg/mL (≈ 4.27 µM)
MIC (Escherichia coli): 1 to 2 µg/mL (≈ 1.07 to 2.13 µM)
reduction of infectious viral titer (SARS-CoV-2 [2]; 10 µM): 95%
reduction of infectious viral titer (SARS-CoV-2 [2]; 20 µM): 97%
Selectivity Index (CC50/IC50) (SARS-CoV-2 [2]; Calu-3): 426
inhibition exerted at the MOIs of 0.1 and 0.05 (SARS-CoV-2 [2]; Calu-3, 10 μM): comparable to each other
inhibition of virus at the lower MOIs (SARS-CoV-2 [2]; Calu-3, 10 μM, MOIs 0.01 and 0.001): not showing statistical significance
infectious virus titer, treatment of virus alone (E, entry) (SARS-CoV-2 [2]; Calu-3, inoculum incubated with 5, 10 or 20 μM for 1 hour, no pre- or post-treatment of cells, Washington and Italy strains): marked reductions of virus titer
IC50 (SARS-CoV-2 [2]; [11]): 565 nM
IC90 (SARS-CoV-2 [2]; [11]): 2630 nM
inhibition at 20 µM (SARS-CoV-2 [2]; Severe acute respiratory syndrome coronavirus 2, Calu-3, read-out: inhibition of infectious viral titer): 61%
IC50 [3]: 750 nM
infectious viral titer compared to the DMSO-control [4]: statistically significant reduction
MIC (Strept. viridians): 2 to 8 µg/mL (≈ 2.13 to 8.54 µM)
EC50 (HCoV-NL63): 2450 ± 52 nM
inhibitory properties in ACE2 positive cell lines (SARS-CoV-2 [5]): supported brilacidin's inhibitory properties
Selectivity (EC50/MIC) RBCs [6]: 558
MIC90 (S. aureus): 1 µg/mL (≈ 1.07 µM)
MIC (Citrobacter fruendi): 2 to 4 µg/mL (≈ 2.13 to 4.27 µM)
toxicity in Calu-3 cells (Calu-3 cells; 10 and 20 μM, 24 hours): nontoxic
CC10 (90% viability) (Calu-3 cells; Calu-3, 24 hpt, Hill model fit): 26800 nM
IC50 (human PDE4B2): ~3000 nM and 3000 nM
Selectivity (EC50/MIC) 3T3 [7]: 430
IC50 (LPS-induced IL-6 release): 274 nM
intracellular spike protein signal [8]: decreased intracellular spike protein signal
MIC (Strept. pneumoniae): 4 to 8 µg/mL (≈ 4.27 to 8.54 µM)
EC50 (HCoV-229E): 1950 ± 67 nM
decrease in the viral genomic copies [9]: 29%
MIC (Providencia stuartii): 16 to 64 µg/mL (≈ 17.1 to 68.3 µM)
IC50 (human PDE3A): ~1800 nM and 1800 nM
IC50 [10]: 702 nM
MIC (Klebsiella oxtoca): 2 to 8 µg/mL (≈ 2.13 to 8.54 µM)
MIC (Strept. agalactiae): 2 µg/mL (≈ 2.13 µM)
